This assay deals with DLD-1 BRCA2−/− cells. Briefly: Homologous recombination synthetic lethal inhibition of proliferation, DLD-1 BRCA2-/- (Cell Titre Glo 3D). The class given is cell-based. To be noted: for IC50: Homo sapiens; for POLQ PD Prolif Lumin BRCA2 −/− mean pIC50: DLD-1 BRCA2 −/−. An outline of the steps:
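Isogenic DLD-1 pair; BRCA2−/− seeded 3,000 cells/mL and read day 12, wt seeded 1,500 cells/mL and read day 7. 10-pt titration (top 10 μM, 3-fold), re-fed with compound day 6, 37 °C/5% CO2. CTG 3D endpoint; IC50 at 50% signal loss.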

Setting [1] is: DLD-1, first proliferation column (c5), taken as DLD-1 BRCA2-/-, read-out: POLQ PD Prolif Lumin (converted).
The mark [2] stands for this setting: DLD-1, DLD-1 BRCA2 −/−, mean, read-out: POLQ PD Prolif Lumin BRCA2 −/− mean pIC50 (converted).
Where [3] appears, read: DLD-1, first proliferation column (c5), DLD-1 BRCA2-/-, read-out: POLQ PD Prolif Lumin (converted).
[4] abbreviates: DLD-1, proliferation, luminescence, taken as DLD-1 BRCA2-/-, read-out: POLQ PD Prolif Lumin (converted).
Where [5] appears, read: DLD-1, DLD-1 BRCA2 −/− cells, mean, read-out: POLQ PD Prolif Lumin BRCA2 −/− mean pIC50 (converted).
Where [6] appears, read: DLD-1, first proliferation column, DLD-1 BRCA2-/-, read-out: POLQ PD Prolif Lumin (converted).

Where two headings read alike, the source gives them in different places.

As to `Cc1ccnc(Cn2c(-c3ccc(C(=O)N4CCOCC4)cc3Cl)nc3c(OC4(C)CC4)ncnc32)c1` [Example T315, (3-chloro-4-(6-(1-methylcyclopropoxy)-9-((4-methylpyridin-2-yl)methyl)-9H-purin-8-yl)phenyl)(morpholino)methanone], the IC50 under setting [1] is 1.58 µM.
As to `Cc1ccnc(Cn2c(-c3ccc(OCCN4CCC4=O)cc3Cl)nc3c(OC4(C)CC4)ncnc32)c1` [Example T313, 1-(2-(3-chloro-4-(6-(1-methylcyclopropoxy)-9-((4-methylpyridin-2-yl)methyl)-9H-purin-8-yl)phenoxy)ethyl)azetidin-2-one], under setting [1], the IC50 is 0.2 µM.
Regarding `Cc1ccc(Cl)cc1Cn1c(-c2ccc(OCCC(C)C(=O)O)cc2Cl)nc2c(OC3(C)CC3)ncnc21` (racemic) [Example U36, 4-(3-chloro-4-(9-(5-chloro-2-methylbenzyl)-6-(1-methylcyclopropoxy)-9H-purin-8-yl)phenoxy)-2-methylbutanoic acid], the IC50 under setting [2] is 0.316 µM.
For `CC1(Oc2ncnc3c2nc(-c2ccc(O[C@H]4CC[C@@H](C(=O)O)CC4)cc2Cl)n3Cc2cc(Cl)ccc2F)CC1` [Example U44, (1s,4s)-4-(3-chloro-4-(9-(5-chloro-2-fluorobenzyl)-6-(1-methylcyclopropoxy)-9H-purin-8-yl)phenoxy)cyclohexane-1-carboxylic acid], under “mean”, the “POLQ PD Prolif Lumin BRCA2 −/− mean pIC50” value stood at 7.2.
For `CC1(Oc2ncnc3c2nc(-c2ccc(OCCN4CCNCC4)cc2Cl)n3CCc2ccncc2)CC1` [Example L1, 8-(2-chloro-4-(2-(piperazin-1-yl)ethoxy)phenyl)-6-(1-methylcyclopropoxy)-9-(2-(pyridin-4-yl)ethyl)-9H-purine], the IC50 (DLD-1, 288 h, DLD-1 BRCA2−/− cells, 12 days, read-out: POLQ PD Prolif Lumin BRCA2 −/− mean pIC50 (converted)) was > 10 µM.
`Cc1ccnc(Cn2c(-c3ccc(C4CCC(=O)N4)cc3Cl)nc3c(OC4(C)CC4)ncnc32)c1` (single isomer, unassigned) [Example T172, 5-(3-chloro-4-(6-(1-methylcyclopropoxy)-9-((4-methylpyridin-2-yl)methyl)-9H-purin-8-yl)phenyl)pyrrolidin-2-one]: the IC50 under setting [3] is 0.398 µM.
Turning to `CCNC(=O)c1ccc(-c2nc3c(OC4(C)CC4)ncnc3n2Cc2cc(C)ccn2)c(Cl)c1` [Example T114, 3-chloro-N-ethyl-4-(6-(1-methylcyclopropoxy)-9-((4-methylpyridin-2-yl)methyl)-9H-purin-8-yl)benzamide], under setting [3], the IC50 was 0.316 µM.
`CC(CCOc1ccc(-c2nc3c(OC4(C)CC4)ncnc3n2Cc2cccc(C(F)(F)F)c2)c(Cl)c1)C(=O)O` (single isomer, unassigned) [Example T396, 4-(3-chloro-4-(6-(1-methylcyclopropoxy)-9-(3-(trifluoromethyl)benzyl)-9H-purin-8-yl)phenoxy)-2-methylbutanoic acid]: the IC50 under setting [4] is 0.251 µM.
Take `CC1(Oc2ncnc3c2nc(-c2cccc(OCCCC(=O)NS(C)(=O)=O)c2Cl)n3Cc2cccc(Cl)c2)CC1` [Example T325, 4-(2-chloro-3-(9-(3-chlorobenzyl)-6-(1-methylcyclopropoxy)-9H-purin-8-yl)phenoxy)-N-(methylsulfonyl)butanamide]: under setting [1], the IC50 is 0.316 µM.
Take `Cc1ccnc(Cn2c(-c3ccc(CCO)cc3Cl)nc3c(OC4(C)CC4)ncnc32)c1` [Example T65, 2-(3-chloro-4-(6-(1-methylcyclopropoxy)-9-((4-methylpyridin-2-yl)methyl)-9H-purin-8-yl)phenyl)ethan-1-ol]: under setting [5], the IC50 was 0.251 µM.
`CC1(Oc2ncnc3c2nc(-c2ccc(OCCN4C[C@H]5C[C@@H]4CN5)cc2Cl)n3Cc2cc(Cl)ccn2)CC1` [Example T485, 8-(4-(2-((1R,4R)-2,5-diazabicyclo[2.2.1]heptan-2-yl)ethoxy)-2-chlorophenyl)-9-((4-chloropyridin-2-yl)methyl)-6-(1-methylcyclopropoxy)-9H-purine]: the IC50 under setting [3] is 0.501 µM.
For the compound `Cc1ccnc(Cn2c(-c3ccc(C(=O)N4CC(N5CCCC5)C4)cc3Cl)nc3c(OC4(C)CC4)ncnc32)c1` [Example T602, (3-chloro-4-(6-(1-methylcyclopropoxy)-9-((4-methylpyridin-2-yl)methyl)-9H-purin-8-yl)phenyl)(3-(pyrrolidin-1-yl)azetidin-1-yl)methanone], the IC50 under setting [6] was 1.26 µM.
On the same count and under the same terms, then `Cc1ccnc(Cn2c(-c3ccc(OCC(=O)N4CC[C@@](C)(O)C4)cc3Cl)nc3c(OC4(C)CC4)ncnc32)c1` [Example T581, (R)-2-(3-chloro-4-(6-(1-methylcyclopropoxy)-9-((4-methylpyridin-2-yl)methyl)-9H-purin-8-yl)phenoxy)-1-(3-hydroxy-3-methylpyrrolidin-1-yl)ethan-1-one], with 0.501 µM.
With `CC1(Oc2ncnc3c2nc(-c2cccc(OCCCCCCC(=O)O)c2Cl)n3Cc2cccc(Cl)c2)CC1` [Example T564, 7-(2-chloro-3-(9-(3-chlorobenzyl)-6-(1-methylcyclopropoxy)-9H-purin-8-yl)phenoxy)heptanoic acid], the IC50 under setting [3] is 0.0316 µM.
With `Cc1ccnc(Cn2c(-c3ccc(CCC(=O)N(C)C)cc3Cl)nc3c(OC4(C)CC4)ncnc32)c1` [Example T358, 3-(3-chloro-4-(6-(1-methylcyclopropoxy)-9-((4-methylpyridin-2-yl)methyl)-9H-purin-8-yl)phenyl)-N,N-dimethylpropanamide], the IC50 under setting [1] is 0.251 µM.
With `CC1(Oc2ncnc3c2nc(-c2ccc(OCCN4CCNCC4)cc2Cl)n3Cc2ccc(F)cn2)CC1` [Example T350, 8-(2-chloro-4-(2-(piperazin-1-yl)ethoxy)phenyl)-9-((5-fluoropyridin-2-yl)methyl)-6-(1-methylcyclopropoxy)-9H-purine], the IC50 under setting [1] is 2.51 µM.
Consider `CC1(Oc2ncnc3c2nc(-c2ccc(OCCO)cc2Cl)n3Cc2cc(C(F)(F)F)ccn2)CC1` [Example T44, 2-(3-chloro-4-(6-(1-methylcyclopropoxy)-9-((4-(trifluoromethyl)pyridin-2-yl)methyl)-9H-purin-8-yl)phenoxy)ethan-1-ol], for which the IC50 under setting [5] was 0.251 µM.
For the compound `CC(CCCc1ccc(-c2nc3c(OC4(C)CC4)ncnc3n2Cc2cccc(Cl)c2)c(Cl)c1)C(=O)O` (racemic) [Example T434, 5-(3-chloro-4-(9-(3-chlorobenzyl)-6-(1-methylcyclopropoxy)-9H-purin-8-yl)phenyl)-2-methylpentanoic acid], the IC50 under setting [4] was 0.158 µM.
In the case of `C/C(=C\COc1ccc(-c2nc3c(OC4(C)CC4)ncnc3n2Cc2cccc(Cl)c2)c(Cl)c1)C(=O)O` [Example T255, (E)-4-(3-chloro-4-(9-(3-chlorobenzyl)-6-(1-methylcyclopropoxy)-9H-purin-8-yl)phenoxy)-2-methylbut-2-enoic acid], the IC50 (DLD-1, DLD-1 BRCA2-/- proliferation, column head only partly shown, read-out: POLQ PD Prolif Lumin (converted)) is 0.316 µM.
For the compound `COc1ccc(F)cc1Cn1c(-c2cccc(OCC(C)CC(=O)O)c2Cl)nc2c(OC3(C)CC3)ncnc21` (single isomer, unassigned) [Example U80, 4-(2-chloro-3-(9-(5-fluoro-2-methoxybenzyl)-6-(1-methylcyclopropoxy)-9H-purin-8-yl)phenoxy)-3-methylbutanoic acid], the “POLQ PD Prolif Lumin BRCA2 −/− mean pIC50” value (mean) was found to be 8.
Turning to `CC1(Oc2ncnc3c2nc(-c2ccc(OCCCC(C)(C)C(=O)O)cc2Cl)n3Cc2ccccc2C#N)CC1` [Example U21, 5-(3-chloro-4-(9-(2-cyanobenzyl)-6-(1-methylcyclopropoxy)-9H-purin-8-yl)phenoxy)-2,2-dimethylpentanoic acid], under setting [2], the IC50 is 0.158 µM.
Take `Cc1ccnc(Cn2c(-c3ccc(N4CCOC4=O)cc3Cl)nc3c(OC4(C)CC4)ncnc32)c1` [Example T96, 3-(3-chloro-4-(6-(1-methylcyclopropoxy)-9-((4-methylpyridin-2-yl)methyl)-9H-purin-8-yl)phenyl)oxazolidin-2-one]: the IC50 under setting [5] was 0.1 µM.
Turning to `Cc1ccnc(Cn2c(-c3ccc(OCCN4CCNCC4=O)cc3Cl)nc3c(OC4(C)CC4)ncnc32)c1` [Example T498, 1-(2-(3-chloro-4-(6-(1-methylcyclopropoxy)-9-((4-methylpyridin-2-yl)methyl)-9H-purin-8-yl)phenoxy)ethyl)piperazin-2-one], under setting [3], the IC50 is 0.316 µM.
Turning to `Cc1ccnc(Cn2c(-c3ccc(CC(=O)NCC(C)(C)O)cc3Cl)nc3c(OC4(C)CC4)ncnc32)c1` [Example T515, 2-(3-chloro-4-(6-(1-methylcyclopropoxy)-9-((4-methylpyridin-2-yl)methyl)-9H-purin-8-yl)phenyl)-N-(2-hydroxy-2-methylpropyl)acetamide], the IC50 under setting [3] was 0.631 µM.
For the compound `Cc1ccnc(Cn2c(-c3ccc(OCC4COC4)cc3Cl)nc3c(OC4(C)CC4)ncnc32)c1` [Example T193, 8-(2-chloro-4-(oxetan-3-ylmethoxy)phenyl)-6-(1-methylcyclopropoxy)-9-((4-methylpyridin-2-yl)methyl)-9H-purine], under setting [3], the IC50 was 0.251 µM.
Take `Cc1ccnc(Cn2c(-c3ccc(OCC(=O)NC(C)C)cc3Cl)nc3c(OC4(C)CC4)ncnc32)c1` [Example T366, 2-(3-chloro-4-(6-(1-methylcyclopropoxy)-9-((4-methylpyridin-2-yl)methyl)-9H-purin-8-yl)phenoxy)-N-isopropylacetamide]: under setting [1], the IC50 was 0.2 µM.
In the case of `Cc1ccnc(Cn2c(-c3ccc(OC[C@H]4CNC(=O)O4)cc3Cl)nc3c(OC4(C)CC4)ncnc32)c1` [Example T188, (R)-5-((3-chloro-4-(6-(1-methylcyclopropoxy)-9-((4-methylpyridin-2-yl)methyl)-9H-purin-8-yl)phenoxy)methyl)oxazolidin-2-one], the IC50 under setting [3] was 0.501 µM.

For the origin of these results see patent US20250195530A1, “POLQ INHIBITORS” (ASTRAZENECA AB, priority 2022, published 2025).
